Reference: ChEMBL document CHEMBL5113440, “Optimization of clofibrate with O-desmethyl anetholtrithione lead to a novel hypolipidemia compound with hepatoprotective effect” (Bioorg Med Chem Lett, 2022)
Activity calls are given as the source filed them. No cut-off for these calls is given here.

Legend:
[1] = Toxicity in KM mouse assessed as reduction in body weight at 1.65 mmol/Kg, IG administered via gavage measured for 1 month; conditions: in vivo, po, 730 h, time 1 months
[2] = Hepatotoxicity in KM mouse assessed as reduction in plasma ALP level at 1.65 mmol/Kg, IG administered via gavage measured for 1 month by automated biochemical analyzer; assay type: toxicity; conditions: in vivo, po, 730 h, time 1 months
[3] = Hepatotoxicity in KM mouse assessed as large areas of hepatocytes swelling at 1.65 mmol/Kg, IG administered via gavage by H and E staining based analysis; assay type: toxicity; conditions: in vivo, po
Mus musculus [4] = assay: Induction of oxidative stress in KM mouse assessed as increase in MDA level in plasma at 1.65 mmol/Kg, IG administered via gavage measured for 1 month; assay type: functional, organism-based; conditions: time 1.0 months
Mus musculus [5] = assay: Upregulation of p-NF-kappaB p65 protein expression in liver of KM mouse at 1.65 mmol/Kg, IG administered via gavage measured after 1 month by Western blot analysis; assay type: functional; conditions: time 1.0 months
[6] = Hepatotoxicity in KM mouse assessed as blurred edge dissolution at 1.65 mmol/Kg, IG administered via gavage by H and E staining based analysis; assay type: toxicity; conditions: in vivo, po
[7] = Hepatotoxicity in KM mouse assessed as nuclear degeneration at 1.65 mmol/Kg, IG administered via gavage by H and E staining based analysis; assay type: toxicity; conditions: in vivo, po
Mus musculus [8] = assay: Induction of inflammation in KM mouse assessed as upregulation of IL-6 expression in liver tissue at 1.65 mmol/Kg, IG administered via gavage measured for 1 month by Western blot analysis; assay type: functional; conditions: time 1.0 months
Mus musculus [9] = assay: Induction of oxidative stress in KM mouse assessed as reduction in CAT level in plasma at 1.65 mmol/Kg, IG administered via gavage measured for 1 month; assay type: functional, organism-based; conditions: time 1.0 months
[10] = Hepatotoxicity in KM mouse assessed as infiltration of inflammatory cells at 1.65 mmol/Kg, IG administered via gavage by H and E staining based analysis; assay type: toxicity; conditions: in vivo, po
Mus musculus [11] = assay: Induction of oxidative stress in KM mouse assessed as reduction in SOD level in plasma at 1.65 mmol/Kg, IG administered via gavage measured for 1 month; assay type: functional, organism-based; conditions: time 1.0 months
[12] = Hepatotoxicity in KM mouse assessed as reduction in plasma ALT level at 1.65 mmol/Kg, IG administered via gavage measured for 1 month by automated biochemical analyzer; assay type: toxicity; conditions: in vivo, po, 730 h, time 1 months
[13] = Hepatotoxicity in KM mouse assessed as reduction in liver coefficient at 1.65 mmol/Kg, IG administered via gavage measured for 1 month; assay type: toxicity, tissue-based; conditions: in vivo, po, 730 h, time 1 months
[14] = Hepatotoxicity in KM mouse assessed as reduction in plasma AST level at 1.65 mmol/Kg, IG administered via gavage measured for 1 month by automated biochemical analyzer; assay type: toxicity; conditions: in vivo, po, 730 h, time 1 months
[15] = Hepatotoxicity in KM mouse assessed as appearance of loose cytoplasm at 1.65 mmol/Kg, IG administered via gavage by H and E staining based analysis; assay type: toxicity; conditions: in vivo, po
[16] = Hepatotoxicity in KM mouse assessed as reduction in total bilirubin level in plasma at 1.65 mmol/Kg, IG administered via gavage measured for 1 month by automated biochemical analyzer; assay type: toxicity; conditions: po, 730 h, time 1 months
[17] = Hepatotoxicity in KM mouse assessed as effect on liver weight at 1.65 mmol/Kg, IG administered via gavage measured for 1 month; assay type: toxicity, tissue-based; conditions: in vivo, po, 730 h, time 1 months
Mus musculus [18] = assay: Induction of inflammation in KM mouse assessed as upregulation of TNF-alpha expression in liver tissue at 1.65 mmol/Kg, IG administered via gavage measured for 1 month by Western blot analysis; assay type: functional; conditions: time 1.0 months
Mus musculus [19] = assay: Induction of oxidative stress in KM mouse assessed as reduction in GSH level in plasma at 1.65 mmol/Kg, IG administered via gavage measured for 1 month; assay type: functional, organism-based; conditions: time 1.0 months
Mus musculus [20] = assay: Downregulation of p-NF-kappaB p65 protein expression in liver of KM mouse at 1.65 mmol/Kg, IG administered via gavage measured after 1 month by Western blot analysis; assay type: functional; conditions: time 1.0 months
Mus musculus [21] = assay: Antioxidant activity in KM mouse assessed as increase in GSH level in plasma at 1.65 mmol/Kg, IG administered via gavage measured for 1 month; assay type: functional, organism-based; conditions: time 1.0 months
Mus musculus [22] = assay: Hepatoprotective activity in KM mouse assessed as improvement in hepatocyte injury at 1.65 mmol/Kg, IG administered via gavage by H and E staining based analysis; assay type: functional, organism-based
Mus musculus [23] = assay: Upregulation of Nrf2 protein expression in liver of KM mouse at 1.65 mmol/Kg, IG administered via gavage measured after 1 month by Western blot analysis; assay type: functional; conditions: time 1.0 months
Mus musculus [24] = assay: Antioxidant activity in KM mouse assessed as increase in CAT level in plasma at 1.65 mmol/Kg, IG administered via gavage measured for 1 month; assay type: functional, organism-based; conditions: time 1.0 months
Mus musculus [25] = assay: Antioxidant activity in KM mouse assessed as reduction in MDA level in plasma at 1.65 mmol/Kg, IG administered via gavage measured for 1 month; assay type: functional, organism-based; conditions: time 1.0 months
Mus musculus [26] = assay: Hypolipidemic activity in Triton-WR-1339 induced hyperlipidemic KM mouse model assessed as reduction in plasma TG level administered intragastrically via gavage for 7 days; assay type: functional, organism-based; conditions: dose 0.029-0.267 mmol/Kg, route ig, time 7.0 day, DDE = dose-dependent effect
Mus musculus [27] = assay: Hypolipidemic activity in Triton-WR-1339 induced hyperlipidemic KM mouse model assessed as reduction in plasma TC level administered intragastrically via gavage for 7 days; assay type: functional, organism-based; conditions: dose 0.029-0.267 mmol/Kg, route ig, time 7.0 day, DDE = dose-dependent effect
Mus musculus [28] = assay: Antioxidant activity in KM mouse assessed as increase in SOD level in plasma at 1.65 mmol/Kg, IG administered via gavage measured for 1 month; assay type: functional, organism-based; conditions: time 1.0 months
Mus musculus [29] = assay: Antiinflammatory activity in KM mouse assessed as downregulation of IL-6 expression in liver tissue at 1.65 mmol/Kg, IG administered via gavage measured for 1 month by Western blot analysis; assay type: functional, organism-based; conditions: time 1.0 months
Mus musculus [30] = assay: Antiinflammatory activity in KM mouse assessed as downregulation of TNF-alpha expression in liver tissue at 1.65 mmol/Kg, IG administered via gavage measured for 1 month by Western blot analysis; assay type: functional, organism-based; conditions: time 1.0 months
Mus musculus [31] = assay: Upregulation of HO-1 protein expression in liver of KM mouse at 1.65 mmol/Kg, IG administered via gavage measured after 1 month by Western blot analysis; assay type: functional; conditions: time 1.0 months

For `CCOC(=O)C(C)(C)Oc1ccc(Cl)cc1` [CLOFIBRATE], which Activity [1] is on record?
The Activity was “Non-Toxic”.

And the Activity [2]?
Its Activity is “Toxic”.

And the Activity [3]?
Its Activity is “Toxic”.

What about the Activity (Mus musculus [4]) of the same compound?
Its Activity is “Active”.

What about the Activity (Mus musculus [5]) of the same compound?
The Activity was “Active”.

And the Activity [6]?
The Activity was “Toxic”.

And the Activity [7]?
The Activity was “Toxic”.

What about the Activity (Mus musculus [8]) of the same compound?
Its Activity is “Active”.

What about the Activity (Mus musculus [9]) of the same compound?
The Activity was “Active”.

And the Activity [10]?
Its Activity is “Toxic”.

And the Activity (Mus musculus [11])?
Its Activity is “Active”.

What about the Activity [12] of the same compound?
Its Activity is “Toxic”.

What about the Activity [13] of the same compound?
The Activity was “Toxic”.

What about the Activity [14] of the same compound?
The Activity was “Toxic”.

And the Activity [15]?
Its Activity is “Toxic”.

And the Activity [16]?
The Activity was “Toxic”.

What about the Activity [17] of the same compound?
The Activity was “Toxic”.

What about the Activity (Mus musculus [18]) of the same compound?
Its Activity is “Active”.

What about the Activity (Mus musculus [19]) of the same compound?
Its Activity is “Active”.

With `CC(C)(Oc1ccc(Cl)cc1)C(=O)Oc1ccc(-c2cc(=S)ss2)cc1` as the compound, how does the Activity [1] read?
The Activity was “Non-Toxic”.

And the Activity (Mus musculus [20])?
The Activity was “Active”.

And the Activity (Mus musculus [21])?
Its Activity is “Active”.

What about the Activity [2] of the same compound?
Its Activity is “Non-Toxic”.

What about the Activity (Mus musculus [22]) of the same compound?
Its Activity is “Active”.

What about the Activity (Mus musculus [23]) of the same compound?
Its Activity is “Active”.

What about the Activity (Mus musculus [24]) of the same compound?
Its Activity is “Active”.

What about the Activity (Mus musculus [25]) of the same compound?
Its Activity is “Active”.

What about the Activity (Mus musculus [26]) of the same compound?
Its Activity is “Dde”.

What about the Activity [7] of the same compound?
The Activity was “Non-Toxic”.

What about the Activity (Mus musculus [27]) of the same compound?
The Activity was “Dde”.

And the Activity [10]?
The Activity was “Non-Toxic”.

What about the Activity (Mus musculus [28]) of the same compound?
The Activity was “Active”.

And the Activity [12]?
Its Activity is “Non-Toxic”.

And the Activity [13]?
The Activity was “Non-Toxic”.

And the Activity [14]?
The Activity was “Non-Toxic”.

And the Activity (Mus musculus [29])?
The Activity was “Active”.

And the Activity [15]?
Its Activity is “Non-Toxic”.

And the Activity [16]?
Its Activity is “Non-Toxic”.

And the Activity (Mus musculus [30])?
Its Activity is “Active”.

What about the Activity [17] of the same compound?
Its Activity is “Non-Toxic”.

And the Activity (Mus musculus [31])?
Its Activity is “Active”.
